According to patent US9254280B2, “Medical food for cognitive decline” (The Regents of the University of California, priority 2011, dated 2016):

How the values were obtained:
3×AD Tg mice [1] = assay: Morris Water Maze, hidden platform, diet supplement study; format: in vivo
From the text: (§1) Fisetin, a natural flavonoid enriched in strawberries, is neuroprotective and can improve cognitive function in various animal models including aging mice and beta amyloid plaque accumulating transgenic mice. We have tested 0.6% DHA alone, 500 ppm fisetin alone and DHA+fisetin in combination delivered as a food supplement (in chow) to older 3×AD Tg mice with combined amyloid and tau pathology. The study ran from ˜9 months to 13-14 months of age.

3×AD Tg mice [2] = assay: Probe test (platform removed, time in target quadrant); format: in vivo; details: 60 seconds swim, dietary supplement
From the text: as §1
FIG. 2. […] In this test the platform is removed, and the mice are allowed to swim for 60 seconds, while the time in the target quadrant is quantified.

O=c1c(O)c(-c2ccc(O)c(O)c2)oc2cc(O)ccc12 [fisetin, 2-(3,4-dihydroxyphenyl)-3,7-dihydroxy-4H-chromen-4-one]
Cognitive deficits (3×AD Tg mice [1]; 0.6% DHA, 500 ppm fisetin, alone or combined, in chow, older 3×AD Tg mice, ~9 to 13-14 months of age): not by DHA alone or fisetin alone
time (latency) to find a hidden platform with additional blocks of training (3×AD Tg mice [1]; 12-13 month old 3×AD Tg mice on control bad (high safflower oil) diet): no improvement
retention in the probe test (time in the target quadrant) (3×AD Tg mice [2]): also improved retention
